Converted amounts (≈) assume the structure as drawn.
These molecules were tested on P. vulgaris 49 (assay: In vitro antibacterial activity, two-fold agar-plate dilution method (MIC)). Settings: Proteus vulgaris, HI-agar, 10^6 viable cells per ml, 37° C. for 20 hours, read-out: MIC (minimal inhibitory concentration).
Format: cell-based
Protocol: Now in order to show the utility of the object compounds [I], the test data on MIC (minimal inhibitory concentration) of representative compounds [I] of this invention are shown in the following.
In vitro antibacterial activity was determined by the two-fold agar-plate dilution method as described below.
One loopful of an overnight culture of each test strain in Trypticase-soy broth (10^6 viable cells per ml) was streaked on heart infusion agar (HI-agar) containing graded concentrations of representative test compound, and the minimal inhibitory concentration (MIC) was expressed in terms of μg/ml after incubation at 37° C. for 20 hours.

| MIC [µg/mL] | Structure (SMILES) |
| --- | --- |
| 0.1 (≈ 0.177 µM) | Cn1c(N)cc[n+]1CC1=C(C(=O)[O-])N2C(=O)C(NC(=O)C(=NOC(C)(C)C(=O)O)c3nsc(N)n3)C2SC1 (stereo not drawn) [Compound C, 7β-[2-(5-Amino-1,2,4-thiadiazol-3-yl)-2-(1-carboxyl-1-methylethoxyimino)acetamido]-3-(3-amino-2-methyl-1-pyrazolio)methyl-3-cephem-4-carboxylate(syn isomer)] |
| 0.2 (≈ 0.354 µM) | Cn1c(NC=O)cc[n+]1CC1=C(C(=O)[O-])N2C(=O)C(NC(=O)C(=NOCC(=O)O)c3nsc(N)n3)C2SC1 (stereo not drawn) [Compound B, 7β-[2-(5-Amino-1,2,4-thiadiazol-3-yl)-2-carboxymethoxyiminoacetamide]-3-(3-formamido-2-methyl-1-pyrazolio)methyl-3-cephem-4-carboxylate (syn isomer)] |
| 0.2 (≈ 0.372 µM) | Cn1c(N)cc[n+]1CC1=C(C(=O)[O-])N2C(=O)C(NC(=O)C(=NOCC(=O)O)c3nsc(N)n3)C2SC1 (stereo not drawn) [Compound A, 7β-[2-(5-Amino-1,2,4-thiadiazol-3-yl)-2-carboxymethoxyiminoacetamido]-3-(3-amino-2-methyl-1-pyrazolio)methyl-3-cephem-4-carboxylate (syn isomer)] |

Reference: patent publication US5108997A, “Cephem compounds” (Fujisawa Pharmaceuticals Co., Ltd., priority 1986, dated 1992)
